Data published in US20230381275A1, “MUSCULAR FUNCTION IMPROVING AGENT FOR SKELETAL MUSCLE OF WHICH FUNCTION IS DEGRADED DUE TO AGING” (OSAKA UNIVERSITY, priority 2020, published 2023).

What was measured:
[1] = test system: aging-accelerated model mice; assay: Endurance evaluation test on treadmill (Example 7); assay type: in vivo
Description: In this example, the number of SV peptide doses and dosage in Example 4 were changed as shown in the following table, and exercise evaluation (endurance evaluation) was performed when SV peptide was continuously administered to aging-accelerated model mice. The conditions other than the number of SV peptide doses and dosage were the same as in Example 4.
Specifically, SV peptide was added to PBS to adjust to a concentration of 20 μg/ml for the injectable formulation, and localized to the bilateral lower limb muscles of each mouse anesthetized by inhalation with sevoflurane immediately after training once every 4 weeks (Friday) (SV group; once every 4 weeks).
The results of the endurance evaluation test are shown in FIG. 14 with a graph showing the mean running distance for the SV group (n=6) and the PBS group (n=6). In addition, graphs showing the difference between the mean running distance on the reference date (30 weeks of age) and the mean running distance in each test are shown in FIGS. 15 and 16. […] In FIG. 16, the sum of the absolute difference in mean running distance relative to the reference date in the SV group and the absolute difference in mean running distance relative to the reference date in the PBS group is shown as the SV treatment effect.
The change over time in the mean maximum speed in each group is shown in FIG. 17, and graphs showing the difference between the mean maximum speed on the reference date and the mean maximum speed on each test date are shown in FIGS. 18 and 19. […] In FIG. 19, the sum of the absolute difference in mean running distance relative to the reference date in the SV group and the absolute difference in mean running distance relative to the reference date in the PBS group is shown as the SV treatment effect. The treatment effect of more than 0.15 m/sec was confirmed at 34 and 39-41 weeks.

[2] = test system: aging-accelerated model mice; assay: Mean cross-sectional area of muscle fibers, HE staining, 51-week-old mice (Example 5); assay type: in vivo
Description: In this example, the training schedule and SV peptide administration concentration were changed from Example 4, and exercise evaluation (endurance evaluation) was conducted in aging-accelerated model mice when SV peptide was continuously administered. In addition, the cross-sectional area of muscle fibers (gastrocnemius (type I, type IIa, type IIb), extensor digitorum longus, and tibialis anterior muscles) were evaluated in mice that continued training and SV peptide administration until 51 weeks of age.
Aging-accelerated model mice were trained on a treadmill (MK-680; Muromachi Kikai Co., Ltd.) (18 m/min×90 min) and subsequent SV peptide administration was performed according to the schedule in the following table. 30 weeks of age and thereafter, training was performed continuously from Monday to Friday of each week. SV peptide was added to PBS to adjust to a concentration of 1 μg/ml for an injection formulation and localized to the bilateral leg muscles of each mouse anesthetized by inhalation with sevoflurane immediately after training on Tuesday and Friday (SV group; twice weekly administration). Exercise evaluations were performed every other Friday.
The gastrocnemius, extensor digitorum longus, and tibialis anterior muscles of the lower limbs were removed from 51-week-old aging-accelerated model mice, and after sections were prepared according to the standard method, the cross-sectional area of muscle fibers was measured by HE staining. […] The mean cross-sectional area of muscle fibers was also measured for each type of gastrocnemius muscle fiber (type I, type IIa, and type IIb). The mean cross-sectional area of muscle fibers was the mean of more than 50 fibers of each muscle fiber type.

[3] = test system: animal models of injured skeletal muscle; settings: local administration, Non-Patent Document 7, Patent Document 5; cited from earlier work
[4] = test system: aging-accelerated model mice (SAMP10); assay: Number of collisions during treadmill running, weekly test (Example 1); assay type: in vivo; settings: after 30 weeks of age (tested to 35 weeks), SV peptide 20 ng/ml injected into bilateral lower limb muscles after treadmill training, vs PBS control group, FIG. 1
Description: In this example, a peptide consisting of the amino acid sequence of SVVYGLR (SEQ ID No.: 1) (SV peptide) was administered to aging-accelerated model mice, and their effects on restoring muscle function were confirmed.
SV peptide was synthesized by the Fmoc method using a multi-species solid-phase automated peptide synthesizer (PSSM-8; Shimadzu Corp.) SV peptide was added to PBS and adjusted to 20 ng/ml to prepare an injection formulation.
Aging-accelerated model mice (SAMP10 21 weeks old) were used to perform training on a treadmill (MK-680; Muromachi Kikai Co., Ltd.) and subsequent SV peptide administration according to the schedule in the following table. […]
Once a week, the mice were tested on a treadmill to measure the number of collisions. After SV peptide injection, the mice have trained on the treadmill again (18 m/min×90 min), and the number of times the mice collided with the treadmill wall due to being unable to run at a speed equal to or faster than that of the belt was measured during treadmill training. […] In the control group, after training on the treadmill in the same manner as the experimental group, PBS was injected into the bilateral lower limb muscles instead of SV peptide, and the number of collisions was measured once a week.

fibroblasts = settings: see Patent Document 1; cited from earlier work
[5] = test system: aging-accelerated model mice (SAMP10); assay: Mean cross-sectional area of muscle fibers, HE staining, 40-week-old mice (Example 3); assay type: in vivo; settings: 40-week-old SAMP10 mice; treadmill training plus SV peptide 20 ng/ml; vs PBS control; FIG. 3B
Description: In this example, we evaluated muscle fibers in aging-accelerated model mice after continuous administration of SV peptide.
Aging-accelerated model mice (SAMP10 21 weeks old) were trained on a treadmill (MK-680; Muromachi Kikai Co., Ltd.) (18 m/min×90 min) and subsequent SV peptide administration was performed according to the same schedule as in Example 1. After 36 weeks of age, training on the treadmill and subsequent SV peptide administration were conducted under the same conditions as at 35 weeks of age, and continued until the aging-accelerated model mice reached 40 weeks of age. In the control group, after training under the same conditions as the experimental group, PBS was injected into the bilateral lower limb muscles instead of SV peptide.
The gastrocnemius and soleus muscles of the lower limbs were then removed from 40-week-old aging-accelerated model mice, sections were prepared according to the standard method, and HE staining was performed.

[6] = SV group vs PBS group, mean of more than 50 fibers, FIGS. 10 and 11
[7] = SV peptide 1 μg/ml plus training from 28 to 51 weeks, vs PBS group, FIG. 9

SVVYGLR [SV peptide, peptide consisting of 7 amino acids (SVVYGLR]
SV treatment effect (sum of absolute differences relative to the reference date of SV group and PBS group) ([1]; FIG. 19, at 34 and 39-41 weeks, SV peptide 20 μg/ml once every 4 weeks plus training): more than 0.15 m/sec | mean maximum speed ([1]; SV group, 20 μg/ml once every 4 weeks plus training, at 41 weeks of age vs 30 weeks of age): same mean maximum speed at 41 weeks of age as at 30 weeks of age | decrease in the mean maximum speed during the test period ([1]; SV group, 20 μg/ml once every 4 weeks plus training, compared to the PBS group): able to suppress the decrease in the mean maximum speed | mean speed (mean maximum speed) ([1]; SV group, 20 μg/ml once every 4 weeks plus training, test from 31 to 36 weeks of age, FIG. 17): continuous increase | mean running distance ([1]; SV group, SV peptide 20 μg/ml once every 4 weeks plus training, at 41 weeks of age vs 30 weeks of age): exceeded that of 30 weeks of age | mean running distance ([1]; SV group, SV peptide 20 μg/ml once every 4 weeks plus training, from 31 to 36 weeks of age, FIGS. 14-16): increased significantly | cross-sectional area of type I gastrocnemius muscle fibers [2, 6]: increased compared to the PBS group | cross-sectional area of type IIa gastrocnemius muscle fibers [2, 6]: increased compared to the PBS group | cross-sectional area of type IIb gastrocnemius muscle fibers [2, 6]: increased compared to the PBS group | mean cross-sectional area of muscle fibers, extensor digitorum longus muscle [2, 7]: significantly larger than that in the PBS group | mean cross-sectional area of muscle fibers, gastrocnemius muscle [2, 7]: significantly larger than that in the PBS group | mean cross-sectional area of muscle fibers, tibialis anterior muscle [2, 7]: significantly larger than that in the PBS group | diameter of regenerated muscle fibers [3]: significantly higher | muscle tissue regeneration [3]: promotes muscle tissue regeneration | number of collisions during treadmill running [4]: significant suppression of the increase in the number of collisions compared to the control group | type III collagen production-promoting effect / type III collagen secretion (fibroblasts): promoting | mean cross-sectional area of fast muscle fibers (gastrocnemius muscle) [5]: significantly higher than in the control group | mean cross-sectional area of slow muscle fibers (soleus muscle) [5]: significantly higher than in the control group
